US20020012943A1, “ELECTROCHEMICAL PROBES FOR DETECTION OF MOLECULAR INTERACTIONS AND DRUG DISCOVERY” (priority 1997, published 2002)
Where no end group is shown, it is not given here. The star is where a group is joined. Biotin = O=C1N[C@H]2[C@H](CS[C@H]2CCCCC(=O)*)N1

Columns and labels:
[1] = biological target: T1, GST-Src SH3 fusion protein (Homo sapiens, UniProt P12931); experiment: Cyclic voltammetry of electrochemically-labeled peptide binding to a GST-Src SH3 coated electrode; details: for specific cyclic voltammetry signal at GST-Src SH3 electrode: electrochemically-labeled peptide plus mediator, described in present tense
T1 construct: made in house
Description: Tin-doped indium oxide electrodes were purchased (Delta Technologies) as 2 cm^2 square glass slides and prepared for use as follows. The electrode was cleaned by sonication treatment in a laboratory sonicator by sequential treatment in Alkonox, neat isopropyl alcohol, distilled and deionized water (three times), and finally the desired buffer; each sonication treatment having been performed for 10 min. The cleaned electrodes were then immersed in a 5 mM solution of 1,12-dodecadicarboxylic acid and incubated at room temperature for 48-72 hours, followed by rinsing the electrodes with hexane (Analytical grade).
(§1) Protein crosslinking to the prepared electrode was then performed as follows. A 50 μL aliquot of a 5 mM solution of 1-(3-dimethylaminopropyl)-3-ethylcarbodiimide was placed on one side of the electrode and dried at room temperature. […] of a 4 mg/mL solution of a fusion protein in phosphate buffered saline (PBS)/0.1% Tween 20 was placed on the surface of the dried electrode previously treated with carbodiimide and incubated at 4° C. overnight to allow crosslinking to proceed. After this incubation, electrodes were washed once with a solution of 100 mM Tris-HCl (pH8.0)/100 mM NaCl for 5 min. and kept in PBS at 4° C. until used.
(§2) Cyclic voltammograms were collected using an EG&G PAR 273A potentiostat/galvanostat with a single compartment voltammetric cell equipped with a modified tin-doped indium oxide (ITO) working electrode (area=0.32 cm^2), platinum (Pt)-wire counter electrode and silver/silver chloride (Ag/AgCl) reference electrode (see Johnston et al, 1994, Inorg. Chem. 33: 6388-6390). An example of such a voltammogram is shown in FIG. 7 and was generated under the following conditions. A sample containing 50 mM Ru(NH3)6^3+ and 20 mM Ru(NH3)5^3+-labeled peptide dissolved in buffered aqueous solutions containing 50 mM sodium phosphate buffer (pH 6.8)/700 mM NaCl (having a total sodium ion concentration of 780 mM) was scanned at a rate of 15 mV/s. After scans with the electrochemically labeled peptide, the electrode was rinsed with the same 50 mM sodium phosphate buffer solution, and then with 50 mM Ru(NH3)6^3+ or an unlabeled peptide solution containing 50 mM Ru(NH3)6^3+. Cyclic voltammograms were obtained with 50 mM Ru(NH3)6^3+ after washing. […] A freshly prepared electrode was used for each experiment and a background scan of buffer alone was collected for each electrode and subtracted from subsequent scans.
The electrochemical analysis apparatus and methods of the invention were used to detect and analyze the specific binding interaction between the Src SH3 domain and a specific binding SH3 peptide as follows. […]

MDM2 = MDM2 (Homo sapiens, UniProt Q00987); experiment: Cyclic voltammetry of electrochemically-labeled peptide binding to an MDM2 coated electrode; details: electrochemically-labeled peptide plus mediator; described in present tense
Sequence of MDM2 (Q00987 whole entry, species assumed): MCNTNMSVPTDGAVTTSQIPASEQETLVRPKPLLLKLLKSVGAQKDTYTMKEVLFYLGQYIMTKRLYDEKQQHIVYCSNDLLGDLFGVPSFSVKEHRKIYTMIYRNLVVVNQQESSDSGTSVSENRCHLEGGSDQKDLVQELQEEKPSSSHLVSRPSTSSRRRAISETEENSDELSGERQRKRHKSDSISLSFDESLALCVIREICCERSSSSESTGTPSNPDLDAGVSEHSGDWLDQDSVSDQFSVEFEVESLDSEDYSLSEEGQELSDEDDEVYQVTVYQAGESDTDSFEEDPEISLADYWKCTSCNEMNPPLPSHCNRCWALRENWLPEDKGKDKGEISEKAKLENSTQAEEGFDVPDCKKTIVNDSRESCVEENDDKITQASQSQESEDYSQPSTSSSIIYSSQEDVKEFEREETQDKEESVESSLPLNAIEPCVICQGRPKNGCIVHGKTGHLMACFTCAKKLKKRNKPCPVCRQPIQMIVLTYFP
Description: as §1
Cyclic voltammograms were collected using an EG&G PAR 273A potentiostat/galvanostat with a single compartment voltammetric cell equipped with a modified tin-doped indium oxide (ITO) working electrode (area=0.32 cm^2), platinum (Pt)-wire counter electrode and silver/silver chloride (Ag/AgCl) reference electrode (see Johnston et al, 1994, Inorg. Chem. 33: 6388-6390). An example of such a voltammogram is shown in FIG. 7 and was generated under the following conditions. A sample containing 50 mM Ru(NH3)6^3+ and 20 mM Ru(NH3)5^3+-labeled peptide dissolved in buffered aqueous solutions containing 50 mM sodium phosphate buffer (pH 6.8)/700 mM NaCl (having a total sodium ion concentration of 780 mM) was scanned at a rate of 15 mV/s. […]

streptavidin = streptavidin (Streptomyces avidinii, UniProt P22629); experiment: Cyclic voltammetry of electrochemically-labeled peptide binding to a streptavidin coated electrode; details: electrochemically-labeled peptide plus mediator; described in present tense
Sequence of streptavidin (P22629 25-183): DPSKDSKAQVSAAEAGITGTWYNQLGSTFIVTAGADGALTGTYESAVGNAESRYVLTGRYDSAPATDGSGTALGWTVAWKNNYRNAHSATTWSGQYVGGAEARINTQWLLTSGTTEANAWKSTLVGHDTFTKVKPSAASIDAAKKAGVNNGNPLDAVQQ
Description: as §1, §2
Electrodes are prepared by coating with the GST-Src SH3 fusion protein described above or with streptavidin using the procedures described in Example 2. […]

[2] = system: Tyrosine aminoacyl tRNA synthetase (tyrRS); experiment: Chronoamperometry of SA/B-HRP conjugated surrogate ligand binding to, and inhibitor displacement from, a tyrRS hydrogel electrode
src SH3 domain = biological target: T2, src SH3 domain (Homo sapiens, UniProt P12931); experiment: Chronoamperometry of SA/B-HRP conjugated surrogate ligand binding to a src SH3 hydrogel electrode; details: 100 mV
T2 construct: The src SH3 domain was immobilized in a hydrogel as described above in Section A
Description: The electrochemical analytic methods and apparati of the invention are used to detect protein:peptide interactions in a complex mixture. A variety of different target molecules and purchased from Polysciences (Warrington, Pa.). The redox polymer poly(1-vinylimidazole), modified with Os bipyridine redox centers (PVI-Os) was synthesized as described by Ohara et al. (1993, Anal. Chem. 65: 3512-3517). Specifically, hydrogels were prepared by mixing together 5 μL of each of the following solutions: a solution of a first member of a biological binding pair, typically comprising a receptor protein or fragment at a concentration of 4-6 mg/mL protein; 10 mg/mL PVI-Os, and 2.5 mg/mL PEGDGE. A 1 μL aliquot of the mixture was then spread on the surface of the glassy carbon electrodes. The hydrogel coated electrodes were cured overnight at room temperature prior to use.
The src SH3 domain was immobilized in a hydrogel as described above in Section A. This electrode was then used for electrochemical detection of surrogate ligand binding using a surrogate ligand prepared as follows.
A complex of streptavidin (SA) (Sigma Chemical Co., St. Louis, Mo.), biotinylated horseradish peroxidase (B-HRP) (Sigma) and biotinylated src SH3 surrogate ligand (His-Gly-Ser-Gly-Ser-Phe-Ser-His-Pro-Gln-Asn-Thr; SEQ ID No. 2) was prepared as follows. […]

Substance | specific cyclic voltammetry signal at GST-Src SH3 electrode [1] | specific cyclic voltammetry signal at streptavidin electrode (streptavidin) | also measured
Biotin-HHSGSGSQTFSDLWKL [p53 peptide] | No specific interaction is detected | No specific interaction is detected | specific cyclic voltammetry signal at MDM2 electrode (MDM2): Specific signals are detected
HGSGSFSHPQNT [streptavidin binding peptide] | no specific signal is detected | Specific signals are detected | 
LYSWPDEQYERPSGSGK [tyrRS surrogate ligand] |  |  | binding rate constant (first order) for the tyrRS-surrogate ligand binding reaction ([2]; from the single-exponential current rise of FIG. 9): 0.0012 s⁻¹; current upon addition of SA/B-HRP conjugated surrogate ligand ([2]; tyrRS hydrogel electrode, conditions as for src SH3 (FIG. 9)): current was detected
Gly-His-Gly-Ser-Gly-Arg-Ala-Leu-Pro-Pro-Leu-Pro-Arg-Tyr-NH2 (GHGSGRALPPLPRY-NH2) [NPDF-1] | Specific signals are detected | no specific signal is detected | integrated cyclic voltammetry signal, mediator background subtracted ([1]; GST-Src SH3 coated electrode compared with GST alone, Ru-labeled peptide, hexaamineruthenium(III) mediator, 2 hours incubation): much higher signal
HGSGSFSHPQNT [src SH3 surrogate ligand] |  |  | time at which current reaches plateau (src SH3 domain; 100 μM H2O2, ligand added at t=600 sec (FIG. 8)): 1500 to 2000 s; current upon addition of SA/B-HRP conjugated surrogate ligand (src SH3 domain; 100 μM H2O2, ligand added at t=600 sec to 1 μg/mL SA (FIG. 8)): an increase in current was detected
